Measured values taken from ChEMBL document CHEMBL4014339, “Discovery of 1,4-Benzodiazepine-2,5-dione (BZD) Derivatives as Dual Nucleotide Binding Oligomerization Domain Containing 1/2 (NOD1/NOD2) Antagonists Sensitizing Paclitaxel (PTX) To Suppress Lewis Lung Carcinoma (LLC) Growth in Vivo” (J Med Chem, 2017).
The source made the active and inactive calls. The rule behind the calls is not given here.

System: Lewis lung carcinoma cell line
Experiment: Antitumor activity against mouse LLC cells implanted in C57BL/6 mouse assessed as tumor weight inhibition at 12 mg/kg, iv administered every 4 days measured 11 days after tumor implantation
Format: functional, organism-based

`CC(=O)O[C@H]1C(=O)[C@@]2(C)[C@H]([C@H](OC(=O)c3ccccc3)[C@]3(O)C[C@H](OC(=O)[C@H](O)[C@@H](NC(=O)c4ccccc4)c4ccccc4)C(C)=C1C3(C)C)[C@]1(OC(C)=O)CO[C@@H]1C[C@@H]2O` was tested, and the TGI was “inactive”.
